{"source": "patent US20250296909A1", "about": "“NOVEL BENZENE DERIVATIVE AND IMMUNOSUPPRESSION-RELATED USE THEREOF” (PROVIBIO CO., LTD., priority 2021, published 2025)", "key": {"spleen T cells [1]": {"test_system": "spleen T cells", "assay": "T cell proliferation inhibition (CFSE, FACS), CD3/CD28-activated spleen T cells", "assay_type": "cell-based, C57BL/6 mice", "details": "Table 2, 3 days, relative to CD3/CD28+DMSO; for inhibition at 10 µM / inhibition at 30 µM / inhibition at 50 µM: Mus musculus, T-cell, 72 h, read-out: Proliferation inhibition rate (%)", "outline": "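CFSE-labelled splenic T cells (CD90.2-isolated, 7-week C57BL/6 mice), 2×10^5/well, activated with anti-CD3/CD28 (0.5 μg/mL each) plus compound at 10, 30 or 50 μM in triplicate for 3 days at 37 °C. CFSE dilution by flow cytometry; inhibition % relative to CD3/CD28+DMSO proliferation.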"}, "[2]": {"test_system": "psoriasis mouse animal model", "assay": "Psoriasis mouse animal model (imiquimod-induced)", "assay_type": "in vivo, BALB/c mice", "details": "40 mg/kg intraperitoneally twice a day", "description": "To confirm the therapeutic effect of compounds according to the present invention on psoriasis, a psoriasis animal model was established to evaluate the alleviation of skin lesions and changes in immune cell profiles by administering Compound 69 or Compound 83 via injection.\nTo establish a psoriasis mouse animal model, BALB/c mice (7 weeks old, 20 g, female) were purchased from Hana Biotech Co. and allowed to acclimate to the housing environment for one week. Afterward, the fur on the dorsal area of the mice was initially shaved using a shaver, followed by complete removal with depilatory cream (Nicrin Cream, comprising thioglycolic acid 80%, manufactured by ILDONG Pharmaceutical CO., LTD). The mice were then housed for 24 hours to confirm any wounds on their backs.\nSubsequently, in order to verify the preventive and therapeutic effects of compounds according to the present invention on psoriasis, five experimental groups were established as shown in FIG. 7 and Table 5. From the second to the fifth group, Aldara® cream was applied once daily for two weeks (14 days, total of 14 applications) at a dose of 80 mg (imiquimod, 4 mg) per mouse to induce psoriasis. Furthermore, to compare the preventive and therapeutic effects of compounds according to the present invention (Compound 69 and Compound 83) on psoriasis, 40 mg/kg of the compound per mouse was dissolved in DMSO corresponding to 10% of the dosing volume, and then diluted in a mixture of Cremophor EL-PEG 400-distilled water to achieve a final ratio of DMSO: Cremophor EL:PEG 400:distilled water to 1:1:4:4 (v/v/v/v). Subsequently, the respective injections were intraperitoneally administered at a dose of 100 μL per mouse, twice a day with a 12-hour interval. For the Vehicle control group, injections excluding the drug but comprising the vehicle solution (DMSO: Cremophor EL:PEG 400:distilled water=1:1:4:4 (v/v/v/v)) were administered at a dose of 100 μL per mouse, twice a day with a 12-hour interval.\nTo assess the impact of each compound on immune cells in vivo, the spleens of mice treated with each compound were harvested, and cells were extracted, and cells were suspended in MACS buffer (2 mM EDTA, 0.5% FBS, 137 mM NaCl, 2.7 mM KCl, 10 mM Na2HPO4, 1.8 mM KH2PO4, Miltenyi Biotech.). For flow cytometry analysis, each mouse's splenocytes were aliquoted at 5×10^5 cells per FACS tube (5 mL round tube, Falcon). To prevent non-specific antibody binding, each tube was treated with 1 μg/mL of anti-mouse CD16/CD32 (InVivoMAb) for 30 minutes, followed by centrifugation at 13,000 rpm for 5 minutes, and resuspended in 100 μL of MACS buffer. Subsequent experiments were conducted depending on the type of immune cells to be examined.\n(§1) For B cells, each FACS tube was stained with 1 μg/mL of FITC-conjugated anti-B220 antibody (eBioscience™) at 4° C. for 30 minutes, followed by washing with 2 mL of MACS buffer. Subsequently, each tube was centrifuged at 15,000 rpm for 5 minutes, the supernatant was removed, and the precipitated cells were fixed using 200 μL of 4% paraformaldehyde solution.\nFor T cells, each FACS tube was stained with 1 μg/mL of PerCP-Cy5.5-conjugated anti-CD3 antibody (Biolegend), FITC-conjugated anti-CD8 antibody (eBioscience™) and Cy7-conjugated anti-CD4 antibody (eBioscience™) at 4° C. for 30 minutes, followed by washing with 2 mL of MACS buffer. Subsequently, each tube was centrifuged at 15,000 rpm for 5 minutes, the supernatant was removed, and the precipitated cells were fixed using 200 μL of 4% paraformaldehyde solution.\nas §1, with “macrophages,” for “B cells,”, “anti-CD11b” for “anti-B220”"}, "[3]": {"test_system": "T lymphocyte cell line Jurkat E6-1", "assay": "Cytotoxicity experiment (CCK-8, relative cell survival)", "assay_type": "cell-based", "details": "24 hours, untreated cells = 100%", "outline": "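Jurkat cells in RPMI-1640 with 10% FBS were exposed to compounds at several concentrations for 24 h at 37 °C, 5% CO2. CCK-8 added for 2 h, absorbance read at 450 nm; survival expressed relative to untreated cells (100%).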"}, "spleen T cells [4]": {"test_system": "spleen T cells", "assay": "Cytokine secretion by anti-CD3/CD28-activated T cells (Cytometric Bead Array)", "assay_type": "cell-based, C57BL/6 mice", "details": "30 μM; for secretion of IL-2: 24 hours after treatment, FIG. 3; for secretion of IFN-γ / secretion of IL-17A / secretion of TNF-α: 72 hours after treatment", "method": "To confirm the effect of compounds of the present invention on the secretion of cytokines by T cells, the following experiment was conducted.\nSpleens were harvested and minced from C57BL/6 mice at 7 weeks of age, and single cells were isolated using a strainer (40 μm pore size, SPL). Red blood cells were removed using ACK (Ammonium-Chloride-Potassium) lysis buffer to isolate only leukocytes. These were then reacted with 10 v/v % CD90.2 microbeads (130-121-278, Miltenyi Biotech.) at 4° C. for 20 minutes, resulting in the isolation of spleen T cells from magnetic-based purification. The T cells were cultured in a 96-well plate at an amount of 2×10^5 cells/well. For T cell activation, each well was treated with anti-CD3/CD28 antibodies at a concentration of 1 μg/mL. Subsequently, Vehicle (DMSO) and compounds (Compound 14, Compound 19, Compound 26, Compound 31, Compound 35, Compound 40, Compound 41, Compound 56, Compound 69, Compound 75) at a concentration of 30 μM were treated in each well, and it was cultured at 37° C. in a 5% CO2 incubator. After 24 and 72 hours, the T cell culture medium was taken, and centrifugation was performed at 13,000 rpm for 10 minutes to obtain the supernatant.\nTo measure the concentration of cytokines present in the T cell culture medium, Mouse Th1/Th2/Th17 Cytokine CBA Kit (Cytometric Bead Array kit) 560485 from BD Science was utilized for flow cytometry analysis. The secretion levels of IL-2 at 24 hours after each drug treatment, and IFN-γ, TNF-α, and IL-17A at 72 hours were measured after each drug treatment."}, "[5]": {"details": "flow cytometry, versus psoriasis groups, FIG. 10"}}, "data": [{"compound": "O=C(NCCCCCCCCCCCCO)c1ccccc1Br", "note": "[Compound 83]", "values": [{"measurement": "inhibition at 10 µM", "setting": "spleen T cells [1]; 10 μM", "result": 0, "unit": "%"}, {"measurement": "inhibition at 30 µM", "setting": "spleen T cells [1]; 30 μM", "result": 63, "unit": "%"}, {"measurement": "inhibition at 50 µM", "setting": "spleen T cells [1]; 50 μM", "result": 100, "unit": "%"}, {"measurement": "skin lesions (erythema, thickness, exfoliation of back skin)", "setting": "[2]; 14 days, FIG. 8", "result": "either minimally present or hardly observed"}, {"measurement": "hyperkeratosis, parakeratosis, irregular acanthosis, infiltration of inflammatory cells (H&E staining)", "setting": "[2]; 14 days, FIG. 9", "result": "either minimally present or hardly observed"}, {"measurement": "proportion of B cells in the spleen", "setting": "[2]; [5]", "result": "increase"}, {"measurement": "proportion of CD11b granulocytes in the spleen", "setting": "[2]; [5]", "result": "decreased"}, {"measurement": "proportion of T cells in the spleen", "setting": "[2]; [5]", "result": "increase"}, {"measurement": "Relative cell survival rate (%)", "setting": "[3]; 10 μM", "result": 102, "unit": "%"}, {"measurement": "Relative cell survival rate (%)", "setting": "[3]; 20 μM", "result": 105, "unit": "%"}, {"measurement": "Relative cell survival rate (%)", "setting": "[3]; 30 μM", "result": 87, "unit": "%"}, {"measurement": "Relative cell survival rate (%)", "setting": "[3]; 50 μM", "result": 77, "unit": "%"}]}, {"compound": "CC(C)=CCC/C(C)=C/CNC(=O)c1cccnc1N", "note": "[Compound 75]", "values": [{"measurement": "inhibition at 10 µM", "setting": "spleen T cells [1]; 10 μM", "result": 95, "unit": "%"}, {"measurement": "inhibition at 30 µM", "setting": "spleen T cells [1]; 30 μM", "result": 98, "unit": "%"}, {"measurement": "inhibition at 50 µM", "setting": "spleen T cells [1]; 50 μM", "result": 98, "unit": "%"}, {"measurement": "secretion of IL-2", "setting": "spleen T cells [4]", "result": "significant decrease"}, {"measurement": "secretion of IFN-γ", "setting": "spleen T cells [4]", "result": "significant decrease"}, {"measurement": "secretion of IL-17A", "setting": "spleen T cells [4]", "result": "significant decrease"}, {"measurement": "secretion of TNF-α", "setting": "spleen T cells [4]", "result": "significant decrease"}, {"measurement": "Relative cell survival rate (%)", "setting": "[3]; 10 μM", "result": 97, "unit": "%"}, {"measurement": "Relative cell survival rate (%)", "setting": "[3]; 20 μM", "result": 95, "unit": "%"}, {"measurement": "Relative cell survival rate (%)", "setting": "[3]; 30 μM", "result": 86, "unit": "%"}, {"measurement": "Relative cell survival rate (%)", "setting": "[3]; 50 μM", "result": 85, "unit": "%"}]}, {"compound": "CCCCCCCCCCCCNS(=O)(=O)c1c(Cl)cccc1Cl", "note": "[Compound 40]", "values": [{"measurement": "Proliferation inhibition rate (%)", "setting": "spleen T cells [1]; 10 μM", "result": 86, "unit": "%"}, {"measurement": "Proliferation inhibition rate (%)", "setting": "spleen T cells [1]; 30 μM", "result": 97, "unit": "%"}, {"measurement": "Proliferation inhibition rate (%)", "setting": "spleen T cells [1]; 50 μM", "result": 97, "unit": "%"}, {"measurement": "secretion of IL-2", "setting": "spleen T cells [4]", "result": "significant decrease"}, {"measurement": "secretion of IFN-γ", "setting": "spleen T cells [4]", "result": "significant decrease"}, {"measurement": "secretion of IL-17A", "setting": "spleen T cells [4]", "result": "significant decrease"}, {"measurement": "secretion of TNF-α", "setting": "spleen T cells [4]", "result": "significant decrease"}, {"measurement": "Relative cell survival rate (%)", "setting": "[3]; 10 μM", "result": 105, "unit": "%"}, {"measurement": "Relative cell survival rate (%)", "setting": "[3]; 20 μM", "result": 99, "unit": "%"}, {"measurement": "Relative cell survival rate (%)", "setting": "[3]; 30 μM", "result": 96, "unit": "%"}, {"measurement": "Relative cell survival rate (%)", "setting": "[3]; 50 μM", "result": 86, "unit": "%"}]}, {"compound": "CCCCCCCCCCCCNS(=O)(=O)c1ccccc1Br", "note": "[Compound 35]", "values": [{"measurement": "Proliferation inhibition rate (%)", "setting": "spleen T cells [1]; 10 μM", "result": 85, "unit": "%"}, {"measurement": "Proliferation inhibition rate (%)", "setting": "spleen T cells [1]; 30 μM", "result": 92, "unit": "%"}, {"measurement": "Proliferation inhibition rate (%)", "setting": "spleen T cells [1]; 50 μM", "result": 93, "unit": "%"}, {"measurement": "secretion of IL-2", "setting": "spleen T cells [4]", "result": "significant decrease"}, {"measurement": "secretion of IFN-γ", "setting": "spleen T cells [4]", "result": "significant decrease"}, {"measurement": "secretion of IL-17A", "setting": "spleen T cells [4]", "result": "significant decrease"}, {"measurement": "secretion of TNF-α", "setting": "spleen T cells [4]", "result": "significant decrease"}, {"measurement": "Relative cell survival rate (%)", "setting": "[3]; 10 μM", "result": 97, "unit": "%"}, {"measurement": "Relative cell survival rate (%)", "setting": "[3]; 20 μM", "result": 89, "unit": "%"}, {"measurement": "Relative cell survival rate (%)", "setting": "[3]; 30 μM", "result": 87, "unit": "%"}, {"measurement": "Relative cell survival rate (%)", "setting": "[3]; 50 μM", "result": 86, "unit": "%"}]}, {"compound": "CCCCCCCCCCCCNS(=O)(=O)c1c(C)cc(C)cc1C", "note": "[Compound 41]", "values": [{"measurement": "Proliferation inhibition rate (%)", "setting": "spleen T cells [1]; 10 μM", "result": 80, "unit": "%"}, {"measurement": "Proliferation inhibition rate (%)", "setting": "spleen T cells [1]; 30 μM", "result": 100, "unit": "%"}, {"measurement": "Proliferation inhibition rate (%)", "setting": "spleen T cells [1]; 50 μM", "result": 100, "unit": "%"}, {"measurement": "secretion of IL-2", "setting": "spleen T cells [4]", "result": "significant decrease"}, {"measurement": "secretion of IFN-γ", "setting": "spleen T cells [4]", "result": "significant decrease"}, {"measurement": "secretion of IL-17A", "setting": "spleen T cells [4]", "result": "significant decrease"}, {"measurement": "secretion of TNF-α", "setting": "spleen T cells [4]", "result": "significant decrease"}, {"measurement": "Relative cell survival rate (%)", "setting": "[3]; 10 μM", "result": 85, "unit": "%"}, {"measurement": "Relative cell survival rate (%)", "setting": "[3]; 20 μM", "result": 83, "unit": "%"}, {"measurement": "Relative cell survival rate (%)", "setting": "[3]; 30 μM", "result": 82, "unit": "%"}, {"measurement": "Relative cell survival rate (%)", "setting": "[3]; 50 μM", "result": 80, "unit": "%"}]}]}
